Test results as given in patent US20220380431A1, “GLYCOPEPTIDE ANALOGS OF SECRETIN FAMILY PEPTIDES” (ARIZONA BOARD OF REGENTS ON BEHALF OF THE UNIVERSITY OF …, priority 2017, published 2022).
Where a SMILES comes first, the peptide text is derived from it. [ ]: non-standard residue; d: D form. The star is where a group is joined. βGlc = OC[C@H]1O[C@@H](*)[C@H](O)[C@@H](O)[C@@H]1O; Nva = CCC[C@H](N)C(=O)O

Legend:
Assay type in all cases: cell-based
[1] = molecular target: T1, VPAC1 (Homo sapiens, UniProt P32241); experiment: Assay of peptides at PAC and VPAC receptors: VPAC1 (EC50/EMax)
T1 sequence (P32241 31-457): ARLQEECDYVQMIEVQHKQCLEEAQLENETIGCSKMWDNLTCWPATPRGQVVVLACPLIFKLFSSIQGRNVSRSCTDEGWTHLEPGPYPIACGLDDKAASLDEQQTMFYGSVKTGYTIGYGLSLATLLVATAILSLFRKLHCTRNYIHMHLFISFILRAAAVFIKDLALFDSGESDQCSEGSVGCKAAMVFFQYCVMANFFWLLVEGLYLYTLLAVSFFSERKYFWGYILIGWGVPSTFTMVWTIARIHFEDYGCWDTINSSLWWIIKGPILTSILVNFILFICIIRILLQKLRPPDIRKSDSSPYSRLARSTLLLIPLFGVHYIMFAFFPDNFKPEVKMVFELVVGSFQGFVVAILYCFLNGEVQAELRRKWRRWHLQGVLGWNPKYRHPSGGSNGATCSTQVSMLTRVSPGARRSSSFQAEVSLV

[2] = molecular target: T2, PAC1 (Homo sapiens, UniProt P41586); experiment: Assay of peptides at PAC and VPAC receptors: PAC1 (EC50/EMax)
T2 sequence (P41586 21-468): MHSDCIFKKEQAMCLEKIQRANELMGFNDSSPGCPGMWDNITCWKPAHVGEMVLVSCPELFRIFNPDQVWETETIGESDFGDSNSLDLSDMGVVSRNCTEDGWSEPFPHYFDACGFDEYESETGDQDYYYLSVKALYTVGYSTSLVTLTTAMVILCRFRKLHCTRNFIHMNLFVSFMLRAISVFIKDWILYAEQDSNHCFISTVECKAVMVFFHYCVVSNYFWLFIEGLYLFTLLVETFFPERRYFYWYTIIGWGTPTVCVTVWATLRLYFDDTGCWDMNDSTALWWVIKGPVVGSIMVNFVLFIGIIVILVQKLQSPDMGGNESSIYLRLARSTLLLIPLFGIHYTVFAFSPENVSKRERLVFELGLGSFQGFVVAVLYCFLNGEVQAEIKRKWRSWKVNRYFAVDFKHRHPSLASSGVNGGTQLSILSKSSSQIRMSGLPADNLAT

[3] = molecular target: T3, VPAC2 (Homo sapiens, UniProt P41587); experiment: Assay of peptides at PAC and VPAC receptors: VPAC2 (EC50/EMax)
T3 sequence (P41587 24-438): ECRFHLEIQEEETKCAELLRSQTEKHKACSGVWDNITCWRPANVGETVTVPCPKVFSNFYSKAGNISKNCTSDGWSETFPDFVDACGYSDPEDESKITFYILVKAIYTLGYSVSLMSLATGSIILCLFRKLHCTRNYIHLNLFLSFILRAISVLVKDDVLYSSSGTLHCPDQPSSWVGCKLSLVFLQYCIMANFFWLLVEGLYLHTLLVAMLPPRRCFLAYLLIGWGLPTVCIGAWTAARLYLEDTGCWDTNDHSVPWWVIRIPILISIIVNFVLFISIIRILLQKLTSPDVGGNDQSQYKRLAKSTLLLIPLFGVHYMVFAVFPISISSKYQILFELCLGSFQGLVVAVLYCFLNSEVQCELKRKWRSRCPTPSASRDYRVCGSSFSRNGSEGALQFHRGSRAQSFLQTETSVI

| Molecule | EC50 [1] [nM] | Emax [1] [%] | EC50 [2] [nM] | PAC1 EMax [2] [%] | VPAC1 EMax [1] [%] | EC50 [3] [nM] | VPAC2 EMax [3] [%] | Emax [2] [%] | Emax [3] [%] |
| --- | --- | --- | --- | --- | --- | --- | --- | --- | --- |
| CCC[C@H](NC(=O)[C@H](CCC(N)=O)NC(=O)[C@H](CCCCN)NC(=O)[C@H](CCCNC(=N)N)NC(=O)[C@H](Cc1ccc(O)cc1)NC(=O)[C@H](CCCNC(=N)N)NC(=O)[C@H](CO)NC(=O)[C@H](Cc1ccc(O)cc1)NC(=O)[C@H](CO)NC(=O)[C@H](CC(=O)O)NC(=O)[C@H](C)NC(=O)[C@H](Cc1ccccc1)NC(=O)[C@@H](NC(=O)CNC(=O)[C@H](CC(=O)O)NC(=O)[C@@H](CO)NC(=O)[C@@H](N)Cc1c[nH]cn1)[C@@H](C)CC)C(=O)N[C@@H](C)C(=O)N[C@H](C(=O)N[C@@H](CCCCN)C(=O)N[C@@H](CCCCN)C(=O)N[C@@H](Cc1ccc(O)cc1)C(=O)N[C@@H](CC(C)C)C(=O)N[C@@H](C)C(=O)N[C@@H](C)C(=O)N[C@H](C(=O)N[C@@H](CO[C@@H]1O[C@H](CO)[C@@H](O)[C@H](O)[C@H]1O)C(N)=O)C(C)C)C(C)C [CRA3004] (H-H[dS]DGIFADSYSRYRKQ[Nva]AVKKYLAAVS(βGlc)-NH2) | 1370 | 85 | – | – | – | – | – | – | – |
| CCC[C@H](NC(=O)[C@H](CCC(N)=O)NC(=O)[C@H](CCCCN)NC(=O)[C@H](CCCNC(=N)N)NC(=O)[C@H](Cc1ccc(O)cc1)NC(=O)[C@H](CCCNC(=N)N)NC(=O)[C@H](CO)NC(=O)[C@H](Cc1ccc(O)cc1)NC(=O)[C@H](CO)NC(=O)[C@H](CC(=O)O)NC(=O)[C@H](C)NC(=O)[C@H](Cc1ccccc1)NC(=O)[C@@H](NC(=O)CNC(=O)[C@H](CC(=O)O)NC(=O)[C@@H](CO)NC(=O)[C@@H](N)Cc1c[nH]cn1)[C@@H](C)CC)C(=O)N[C@@H](C)C(=O)N[C@H](C(=O)N[C@@H](CCCCN)C(=O)N[C@@H](CCCCN)C(=O)N[C@@H](Cc1ccc(O)cc1)C(=O)N[C@@H](CC(C)C)C(=O)N[C@@H](C)C(=O)N[C@@H](C)C(=O)N[C@H](C(=O)N[C@@H](CO[C@@H]1O[C@H](CO)[C@@H](O)[C@H](O)[C@H]1O)C(=O)N[C@@H](CC(C)C)C(N)=O)C(C)C)C(C)C [CRA3005] (H-H[dS]DGIFADSYSRYRKQ[Nva]AVKKYLAAVS(βGlc)L-NH2) | – | 78 | – | – | – | – | – | – | – |
| HSDGIFTDSYSRYRKQLAVd8KKYLAAVd8L-Ser(Lact) [2ls98Lact] | 0.45 | – | 0.72 | 93 | 101 | 193 | 100 | – | – |
| HSDGIFTDSYSRYRKQLAVKKYLAAVd8L-Ser(Cell) [2ls98Cell] | 0.52 | – | 0.84 | 92 | 93 | 55.6 | 91 | – | – |
| CCC[C@H](NC(=O)[C@H](CCC(N)=O)NC(=O)[C@H](CCCCN)NC(=O)[C@H](CCCNC(=N)N)NC(=O)[C@H](Cc1ccc(O)cc1)NC(=O)[C@H](CCCNC(=N)N)NC(=O)[C@H](CO)NC(=O)[C@H](Cc1ccc(O)cc1)NC(=O)[C@H](CO)NC(=O)[C@H](CC(=O)O)NC(=O)[C@@H](NC(=O)[C@H](Cc1ccccc1)NC(=O)[C@@H](NC(=O)CNC(=O)[C@H](CC(=O)O)NC(=O)[C@@H](CO)NC(=O)[C@@H](N)Cc1c[nH]cn1)[C@@H](C)CC)[C@@H](C)O)C(=O)N[C@@H](C)C(=O)N[C@H](C(=O)N[C@@H](CCCCN)C(=O)N[C@@H](CCCCN)C(=O)N[C@@H](Cc1ccc(O)cc1)C(=O)N[C@@H](CC(C)C)C(=O)N[C@@H](C)C(=O)N[C@@H](C)C(=O)N[C@@H](CC(C)C)C(=O)N[C@@H](CO[C@@H]1O[C@H](CO)[C@@H](O)[C@H](O)[C@H]1O)C(=O)N[C@@H](CC(C)C)C(N)=O)C(C)C [CRA3002] (H-H[dS]DGIFTDSYSRYRKQ[Nva]AVKKYLAALS(βGlc)L-NH2) | – | 93 | – | – | – | – | – | -79 | -95 |
